{"source": "patent US12129221B2", "about": "“Difluoro phenyl amide RIP1 inhibitor” (SIRONAX LTD, priority 2018, dated 2024)", "key": {"[1]": {"biological_target": "Human RIP1 kinase (Homo sapiens (Human), UniProt Q13546)", "sequence (Q13546 whole entry)": "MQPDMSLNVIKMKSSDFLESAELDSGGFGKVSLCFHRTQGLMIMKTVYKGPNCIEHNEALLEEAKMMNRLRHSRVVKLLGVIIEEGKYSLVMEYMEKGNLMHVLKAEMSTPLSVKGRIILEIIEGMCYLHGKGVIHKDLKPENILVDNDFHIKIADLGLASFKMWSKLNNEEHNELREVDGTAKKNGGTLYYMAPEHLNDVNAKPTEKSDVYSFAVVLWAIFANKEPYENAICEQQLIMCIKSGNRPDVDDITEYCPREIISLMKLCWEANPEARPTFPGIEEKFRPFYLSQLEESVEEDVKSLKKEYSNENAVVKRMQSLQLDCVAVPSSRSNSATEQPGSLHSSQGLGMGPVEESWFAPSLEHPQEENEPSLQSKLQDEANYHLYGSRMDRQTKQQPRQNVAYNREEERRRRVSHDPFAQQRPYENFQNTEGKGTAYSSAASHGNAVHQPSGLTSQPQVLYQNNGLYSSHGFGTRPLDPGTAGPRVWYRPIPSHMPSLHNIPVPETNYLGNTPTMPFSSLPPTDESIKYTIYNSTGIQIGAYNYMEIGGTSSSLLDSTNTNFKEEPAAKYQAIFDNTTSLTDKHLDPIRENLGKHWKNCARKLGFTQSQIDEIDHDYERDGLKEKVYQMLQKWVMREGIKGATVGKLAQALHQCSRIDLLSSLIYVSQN", "experiment": "Human RIP1 kinase assay", "assay_type": "biochemical", "details": "given as bound or range", "from_the_text": "(§1) Representative IC50 of hRIP1 Kinase Assay Correlated with Our IC50 of Cell Necrosis Assay: […]"}, "[2]": {"experiment": "Liver microsome stability, human", "assay_type": "in vitro ADME", "details": "liver microsomes, liver microsome stability, read-out: Human T1/2", "from_the_text": "(§2) Representative Metabolic Stability Data I; +, Extrapolated."}, "[3]": {"system": "mouse EAE model of multiple sclerosis", "experiment": "Mouse EAE model of multiple sclerosis", "assay_type": "in vivo, C57/BL6 mice", "from_the_text": "A mouse EAE model of multiple sclerosis was established by immunizing C57/BL6 mice with MOG35-55 (amino acids 35-55 of myelin oligodendrocyte glycoprotein) to induce autoimmune reaction to the myelin of the CNS. Immune reaction causes damage to the myelin, and subsequently the neurons, resulting in animal paralysis.\nSIR1-365 was delivered by food at 10 g/kg and FTY-720 was used as a positive control. Mice were feed with FTY-720 containing drinking water or with SIR1-365 containing chow 2 days before 1st immunization for 28 consecutive days. Scoring started at Day 8 post-1st immunization.\nThe results of pathological studies indicated myelin destruction of the spinal cord was protected by SIR1-365. Three different spinal cord regions were sectioned and stained with hematoxylin and eosin (H&E), spinal cord damages were scored and quantified. Feeding with SIR1-365 containing food protected spinal cord damage induced by auto-immune reaction in EAE model."}, "[4]": {"experiment": "Liver microsome stability, monkey", "assay_type": "in vitro ADME", "details": "monkey, liver microsomes", "from_the_text": "as §2"}, "[5]": {"experiment": "PK in monkey", "details": "in vivo"}, "[6]": {"experiment": "Liver microsome stability, mini-pig", "assay_type": "in vitro ADME", "set-up": "key to mini-pig T1/2 (min): +, Extrapolated", "details": "extrapolated", "from_the_text": "as §2"}, "[7]": {"system": "HT-29", "experiment": "EC50 in HT-29", "assay_type": "cell-based", "details": "Homo sapiens"}, "[8]": {"system": "ferroptosis", "experiment": "Ferroptosis inhibitor activity", "assay_type": "cell-based", "details": "1 uM threshold activity extrapolated", "from_the_text": "Ferroptosis Inhibitor Activity 1 Um Threshold Activity Extrapolated"}, "[9]": {"experiment": "Liver microsome stability, dog", "assay_type": "in vitro ADME", "details": "dog, liver microsomes", "from_the_text": "as §2"}, "[10]": {"experiment": "Hepatocyte stability, human", "assay_type": "in vitro ADME", "details": "human, hepatocytes, read-out: Human T1/2", "from_the_text": "(§3) Representative Metabolic Stability Data II, +, Extrapolated."}, "[11]": {"experiment": "Liver microsome stability, rat", "assay_type": "in vitro ADME", "details": "liver microsomes", "from_the_text": "as §2"}, "[12]": {"system": "TNF-α-induced SIRS in mice", "experiment": "Mouse SIRS model (TNF-α-induced mortality)", "assay_type": "in vivo, C57BI/6J mice", "details": "TNF-α intravenously 2 minutes after", "protocol": "Effect on Mouse SIRS Model Sepsis preceded by systemic inflammatory response syndrome (SIRS), is a major cause of death in critically ill patients. TNF-α functions as a key mediator in SIRS pathogenesis by the induction of RIP1-RIP3 mediated necroptosis of the liver.\nSIR1-365 was administrated as a single dose by oral gavage at 3 different doses: 1, 3, and 10 mg/kg to C57BI/6J mice. TNF-α was delivered intravenously 2 minutes after SIR1-365 administration. 87.5% (7 of 8) mice in the control group (given vehicle) died within 36 hours, whereas 50% (4 of 8) mice given SIR1-365 at 1 mg/kg and 25% (2 of 8) mice given SIR1-365 at 3 mg/kg died in the same period."}, "[13]": {"experiment": "PK in mouse", "details": "in vivo"}, "[14]": {"experiment": "Hepatocyte stability, mini-pig", "assay_type": "in vitro ADME", "details": "minipig, hepatocytes, read-out: mini-pig T1/2", "from_the_text": "as §3"}, "[15]": {"system": "necrosis", "experiment": "Necrosis inhibitory activity (cell necrosis / cell viability assay)", "assay_type": "cell-based", "from_the_text": "Necrosis Inhibitory Activity\nas §1"}, "[16]": {"experiment": "Hepatocyte stability, monkey", "assay_type": "in vitro ADME", "details": "monkey, hepatocytes, read-out: Monkey T1/2", "from_the_text": "as §3"}, "[17]": {"experiment": "Liver microsome stability, mouse", "assay_type": "in vitro ADME", "details": "liver microsomes", "from_the_text": "as §2"}, "[18]": {"experiment": "Hepatocyte stability, dog", "assay_type": "in vitro ADME", "details": "dog, hepatocytes, read-out: Dog T1/2", "from_the_text": "as §3"}, "[19]": {"details": "Hepatocyte Stability, comparison table"}}, "note": "“Also recorded” adds a separate entry of the source. Read-outs that look alike come from different tables or passages of the source.", "data": [{"smiles": "CCC(C)(C)C(=O)N(O)Cc1cc(F)cc(F)c1", "note": "[Compound 13, N-(3,5-difluorobenzyl)-N-hydroxy-2,2-dimethylbutanamide]", "values": [{"measurement": "IC50", "setting": "[1]", "result": "< 100", "unit": "nM"}, {"measurement": "half-life", "setting": "[2]", "result": 228, "unit": "min"}, {"measurement": "EAE-induced myelin / spinal cord damage and animal paralysis", "setting": "[3]; 10 g of compound per kilogram food, H&E stained spinal cord sections, listed as SIR1-365", "result": "significantly reduced EAE-induced myelin damage and animal paralysis; also recorded: substantial reduction of myelin damage"}, {"measurement": "disease score in EAE mice", "setting": "[3]; delivered by food at 10 g/kg, 28 consecutive days", "result": "significantly reduced the disease score"}, {"measurement": "half-life", "setting": "[4]; comparison table with WO2016/101885 compounds, read-out: Monkey Liver Microsome T1/2", "result": 5, "unit": "min"}, {"measurement": "half-life", "setting": "[4]; liver microsome stability, read-out: Monkey T1/2", "result": 4.72, "unit": "min"}, {"measurement": "AUC(0-inf)", "setting": "[5]; IV 2 mg/kg", "result": 1760, "unit": "ng·h/mL"}, {"measurement": "clearance", "setting": "[5]; IV 2 mg/kg", "result": 19.3, "unit": "mL/min/kg"}, {"measurement": "half-life", "setting": "[5]; IV 2 mg/kg", "result": 672, "unit": "min"}, {"measurement": "Vd", "setting": "[5]; IV 2 mg/kg, read-out: Vdss", "result": 0.93, "unit": "L/kg"}, {"measurement": "AUC(0-inf)", "setting": "[5]; PO 30 mg/kg", "result": 6930, "unit": "ng·h/mL"}, {"measurement": "Cmax", "setting": "[5]; PO 30 mg/kg", "result": 3730, "unit": "ng/mL"}, {"measurement": "bioavailability", "setting": "[5]; PO 30 mg/kg", "result": 26.3, "unit": "%"}, {"measurement": "half-life", "setting": "[5]; PO 30 mg/kg", "result": 90, "unit": "min"}, {"measurement": "AUC(0-inf)", "setting": "[5]; PO 100 mg/kg", "result": 41600, "unit": "ng·h/mL"}, {"measurement": "Cmax", "setting": "[5]; PO 100 mg/kg", "result": 10700, "unit": "ng/mL"}, {"measurement": "bioavailability", "setting": "[5]; PO 100 mg/kg", "result": 47.5, "unit": "%"}, {"measurement": "half-life", "setting": "[5]; PO 100 mg/kg", "result": 106, "unit": "min"}, {"measurement": "AUC(0-inf)", "setting": "[5]; PO 200 mg/kg", "result": 87200, "unit": "ng·h/mL"}, {"measurement": "Cmax", "setting": "[5]; PO 200 mg/kg", "result": 20600, "unit": "ng/mL"}, {"measurement": "bioavailability", "setting": "[5]; PO 200 mg/kg", "result": 49.5, "unit": "%"}, {"measurement": "half-life", "setting": "[5]; PO 200 mg/kg", "result": 130, "unit": "min"}, {"measurement": "mini-pig T1/2 (min)", "setting": "[6]", "result": "+"}, {"measurement": "EC50", "setting": "[7]", "result": 28, "unit": "nM"}, {"measurement": "EC50", "setting": "[8]", "result": "1000 to 10000", "unit": "nM"}, {"measurement": "half-life", "setting": "[9]; comparison table with WO2016/101885 compounds, read-out: Dog Liver Microsome T1/2", "result": 2, "unit": "min"}, {"measurement": "half-life", "setting": "[9]; liver microsome stability, read-out: Dog T1/2", "result": 2.34, "unit": "min"}, {"measurement": "half-life", "setting": "[10]; [19]", "result": 152, "unit": "min"}, {"measurement": "half-life", "setting": "[10]; Hepatocyte stability", "result": 152, "unit": "min"}, {"measurement": "half-life", "setting": "[11]; comparison table with WO2016/101885 compounds, read-out: Rat Liver Microsome T1/2", "result": 20, "unit": "min"}, {"measurement": "half-life", "setting": "[11]; liver microsome stability, read-out: Rat T1/2", "result": 19.9, "unit": "min"}, {"measurement": "mice died within 36 hours", "setting": "[12]; single oral gavage dose 1 mg/kg", "result": 50, "unit": "%"}, {"measurement": "mice died within 36 hours", "setting": "[12]; single oral gavage dose 3 mg/kg", "result": 25, "unit": "%"}, {"measurement": "mortality caused by SIRS", "setting": "[12]; single oral gavage dose 10 mg/kg, listed as SIR1-365", "result": "completely prevented mortality; also recorded: complete prevention"}, {"measurement": "AUC(0-inf)", "setting": "[13]; IV 2 mg/kg", "result": 489, "unit": "ng·h/mL"}, {"measurement": "clearance", "setting": "[13]; IV 2 mg/kg", "result": 68.2, "unit": "mL/min/kg"}, {"measurement": "half-life", "setting": "[13]; IV 2 mg/kg", "result": 17.4, "unit": "min"}, {"measurement": "Vd", "setting": "[13]; IV 2 mg/kg, read-out: Vdss", "result": 1.7, "unit": "L/kg"}, {"measurement": "AUC(0-inf)", "setting": "[13]; PO 10 mg/kg", "result": 823, "unit": "ng·h/mL"}, {"measurement": "Cmax", "setting": "[13]; PO 10 mg/kg", "result": 1000, "unit": "ng/mL"}, {"measurement": "bioavailability", "setting": "[13]; PO 10 mg/kg", "result": 33.7, "unit": "%"}, {"measurement": "half-life", "setting": "[13]; PO 10 mg/kg", "result": 28.8, "unit": "min"}, {"measurement": "AUC(0-inf)", "setting": "[13]; PO 40 mg/kg", "result": 5410, "unit": "ng·h/mL"}, {"measurement": "Cmax", "setting": "[13]; PO 40 mg/kg", "result": 5420, "unit": "ng/mL"}, {"measurement": "bioavailability", "setting": "[13]; PO 40 mg/kg", "result": 55.4, "unit": "%"}, {"measurement": "half-life", "setting": "[13]; PO 40 mg/kg", "result": 49.8, "unit": "min"}, {"measurement": "half-life", "setting": "[14]", "result": 21.2, "unit": "min"}, {"measurement": "EC50", "setting": "[15]; Necrosis Inhibitory Activity, given as range, read-out: EC50", "result": "1 to 1000", "unit": "nM"}, {"measurement": "EC50", "setting": "[15]; cell necrosis assay, given as bound or range, read-out: Cell viability assay, EC50", "result": "< 100", "unit": "nM"}, {"measurement": "half-life", "setting": "[16]; [19]", "result": 25, "unit": "min"}, {"measurement": "half-life", "setting": "[16]; Hepatocyte stability", "result": 24.9, "unit": "min"}, {"measurement": "half-life", "setting": "[17]; comparison table with WO2016/101885 compounds, read-out: Mouse Liver Microsome T1/2", "result": 17, "unit": "min"}, {"measurement": "half-life", "setting": "[17]; liver microsome stability, read-out: Mouse T1/2", "result": 17.1, "unit": "min"}, {"measurement": "half-life", "setting": "[18]; [19]", "result": 13, "unit": "min"}, {"measurement": "half-life", "setting": "[18]; Hepatocyte stability", "result": 12.8, "unit": "min"}]}]}
